Reference: patent US9284274B2, “Chemical derivatives of jasmonate, pharmaceutical compositions and methods of use thereof” (RAMOT AT TEL-AVIV UNIVERSITY LTD., priority 2005, dated 2016)
Like-named read-outs stand apart in the source and are kept apart here.

Tests used:
[1] = test system: Molt-4 human acute lymphoblastic leukemia cell-line; test: Cytotoxicity, XTT Cell Proliferation Kit assay, Molt-4; assay type: cell-based; conditions: 24 hours; for IC50: XTT; for Cytotoxic effect on leukemic cells (FIG. 1): Molt-4, 0.005-0.5 mM
Protocol: (§1) Cell densities were as follows: Molt-4 (at 2.5×10^4 cells in 100 μl per well), CT26 (at 5×10^3 cells in 100 μl, per well), MCF7 (at 5×10^3 cells in 100 μL per well) and PBL (at 1.5×10^5 cells in 100 μl per well) seeded in 96-well plates. Adherent cells (CT26 and MCF7) were allowed to adhere over-night.
(§2) Jasmonate-derivatives were added at concentration ranging from 0.005-0.5 mM for 24 hours. Each experimental point was performed in triplicates. Untreated cells were used as control. […] Dilutions were performed in culture medium and ethanol so that the final concentration of ethanol in each well was 0.6%.
(§3) Optical density representing viable cells was determined using the XTT Cell Proliferation Kit assay (Biological industries, Beit-Haemek, Israel).
(§4) Percentage of Optical density is directly proportional to the number of living cells in culture. Cytotoxicity (%) was calculated in the following way: [(OD of control cells−OD of drug-treated cells)/OD of control cells]×100.
(§5) Mononuclear cells were isolated from peripheral blood of healthy donors and treated as described above. The non-adherent PBL were pre-incubated with PHA and TPA as described above. Molt-4 and PBL cells were seeded in 96-well plates as described above.
(§6) Each experimental point was performed in triplicates. Untreated cells were used as control. […] Optical density and percentage of Cytotoxicity were determined as described above.

[2] = test system: MCF7 human breast adenocarcinoma cell-line; test: Cytotoxicity, XTT Cell Proliferation Kit assay, MCF7; assay type: cell-based; conditions: 24 hours, read-out: IC50 in MCF-7
Protocol: as §1, §2, §3, §4

[3] = test system: normal lymphocytes (PBL) from healthy donors stimulated with PHA and TPA; test: Cytotoxicity, XTT assay, normal lymphocytes (PBL); assay type: cell-based; conditions: 24 hours; for IC50: Lymphocyte, XTT, PBL pre-incubated with PHA and TPA; for Cytotoxic effect on normal lymphocytes (FIG. 1): PBL, 0.005-0.5 mM
Protocol: Mononuclear cells were isolated from peripheral blood of healthy donors by ficoll-hypaque density gradient centrifugation. The mononuclear cells were allowed to adhere to plastic dishes to remove macrophages. The non-adherent peripheral blood lymphocytes (PBL) were pre-incubated with 0.8 μg/mL PHA and 5 ng/mL TPA for 24 hours and then used in further experiments.
as §1, §2, §3, §4, §5, §6

[4] = test system: CT26 murine colon carcinoma cell-line; test: Cytotoxicity, XTT Cell Proliferation Kit assay, CT26; assay type: cell-based; conditions: Mus musculus, 24 hours, read-out: IC50 in CT-26
Protocol: as §1, §2, §3, §4

[5] = test system: basal cell carcinoma cells (cell line TE 354.T); test: Proliferation assay using XTT reagent, basal cell carcinoma cells; assay type: cell-based; conditions: three days, read-out: IC50 inhibition of proliferation of basal cell carcinoma cells
Protocol: (§7) The effect of methyl jasmonate and compound 9 and 9A on the proliferation of squamous cell carcinoma cells (cell line A431) and basal cell carcinoma cells (cell line TE 354.T) was determined.
(§8) Cells were treated with various concentrations of methyl jasmonate and the compounds 9 and 9A for three days followed by a proliferation assay using XTT reagent (sodium 2,3,-bis(2-methoxy-4-nitro-5-sulfophenyl)-5-[(phenylamino)-carbonyl]-2H-tetrazolium inner salt).

[6] = test system: squamous cell carcinoma cells (cell line A431); test: Proliferation assay using XTT reagent, squamous cell carcinoma cells; assay type: cell-based; conditions: A431, three days, read-out: IC50 inhibition of proliferation of squamous cell carcinoma cells
Protocol: as §7, §8

[7] = test system: LXFA 749 lung, non small, adeno carcinoma, pd; test: Clonogenic assay (TCA), LXFA 749; assay type: cell-based; conditions: Homo sapiens, LXFA 749, Adeno carcinoma, read-out: IC50 colony formation
Protocol: (§9) Cancer cells were taken directly from cancer patients, employing the Tumor-Colony-Assay: Solid human tumor xenografts growing subcutaneously in serial passages in thymus aplastic nude mice were removed and disaggregated to obtain isolated tumor cells. Viable cells were added to culture medium supplemented with agar and plated in 24-multiwell dishes. The test compound was applied in the cultures that were incubated at 37° C. for 6-20 days and monitored for colony growth using an inverted microscope. At the time of maximum colony formation, colonies were counted and 24 hours prior to evaluation, stained with a vital dye. Drug effects were expressed in terms of the percentage of colony formation, obtained by comparison of the mean number of colonies in the treated wells with the mean colony count of untreated controls. IC50 values, being the drug concentrations necessary to inhibit colony formation by 50%, were determined by plotting compound concentration versus relative colony count.

[8] = test system: RXF 423 kidney hypernephroid adeno carcinoma; test: Clonogenic assay (TCA), RXF 423; assay type: cell-based; conditions: Homo sapiens, RXF 423, Hypernephroid adeno carcinoma, read-out: IC50 colony formation
Protocol: as §9

[9] = test system: LXFA 1012 lung, non small, adeno carcinoma, pd; test: Clonogenic assay (TCA), LXFA 1012; assay type: cell-based; conditions: Homo sapiens, LXFA 1012, Adeno carcinoma, read-out: IC50 colony formation
Protocol: as §9

[10] = test system: CT-26 colon carcinoma cells; test: ATP levels, CellTiter-Glo Luminescent Cell Viability Assay; assay type: cell-based, Murine
Protocol: CT-26 cells were exposed to compound 9 for 3 hours and ATP levels were measured using the CellTiter-Glot Luminescent Cell Viability Assay (Promega, Madison, Wis., U.S.A.). […] It thus appears that a drop in cellular energy levels may precipitate the cytotoxic effect of compound 9.

[11] = test system: LXFS 573 small cell lung carcinoma; test: Clonogenic assay (TCA), LXFS 573; assay type: cell-based; conditions: Homo sapiens, read-out: IC50 colony formation
Protocol: as §9

[12] = test system: MAXF 1322 breast papillary adeno carcinoma, pd; test: Clonogenic assay (TCA), MAXF 1322; assay type: cell-based; conditions: Homo sapiens, MAXF 1322, Papillary adeno carcinoma, read-out: IC50 colony formation
Protocol: as §9

B16F10 melanoma cells = test: Experimental metastasis of B16 melanoma cells to the lungs in vivo; set-up: species or system C57bl mice; conditions: 10 mg/kg i.v. once daily, 5 days a week for 3 weeks; lungs weighed after 22 days
Protocol: The experiment was comprised of 3 groups of C57bl mice (12-15 weeks old, n=12), total of 36 all inoculated with B16F10 melanoma cells, 0.1 ml of B16F10 in PBS×1, inoculums of 7×10^5 cells per mouse. Group M1—non treated, Group M2—treated once daily, 5 days a week for 3 weeks with Compound 9 dissolved with surfactants (10 mg/kg, diluted 1:5 with Saline, i.v.), and Group M3—a positive control group treated with Paclitaxel once in 7 days (15 mg/kg, i.v.). After 22 days, mice were sacrificed and lungs were weighed. Lungs with metastases weigh more than normal lungs (which weigh about 200 mg), and a decrease in lung weight in comparison to control tumor-bearing untreated mice signifies an anti-metastatic effect.

[13] = test system: CXF 1299 colon adeno carcinoma; test: Clonogenic assay (TCA), CXF 1299; assay type: cell-based; conditions: Homo sapiens, CXF 1299, Adeno carcinoma, read-out: IC50 colony formation
Protocol: as §9

[14] = test system: CXF 280 colon adeno carcinoma, ud; test: Clonogenic assay (TCA), CXF 280; assay type: cell-based; conditions: Homo sapiens, CXF 280, Adeno carcinoma, read-out: IC50 colony formation
Protocol: as §9

[15] = test system: LXFA 1041 lung, non small, adeno carcinoma, md; test: Clonogenic assay (TCA), LXFA 1041; assay type: cell-based; conditions: Homo sapiens, LXFA 1041, Adeno carcinoma, read-out: IC50 colony formation
Protocol: as §9

[16] = test system: MAXF 857 breast invasive ductal carcinoma; test: Clonogenic assay (TCA), MAXF 857; assay type: cell-based; conditions: Homo sapiens, MAXF 857, Invasive ductal carcinoma, read-out: IC50 colony formation
Protocol: as §9

[17] = test system: GXF 214 stomach adeno carcinoma, ud; test: Clonogenic assay (TCA), GXF 214; assay type: cell-based; conditions: Homo sapiens, GXF 214, Adeno carcinoma, read-out: IC50 colony formation
Protocol: as §9

[18] = test system: LXFL 430 large cell lung carcinoma, ud; test: Clonogenic assay (TCA), LXFL 430; assay type: cell-based; conditions: Homo sapiens, non small, read-out: IC50 colony formation
Protocol: as §9

[19] = test system: RXF 1220 kidney hypernephroma, pd; test: Clonogenic assay (TCA), RXF 1220; assay type: cell-based; conditions: Homo sapiens, RXF 1220, Hypernephroma, read-out: IC50 colony formation
Protocol: as §9

[20] = test system: LXFA 629 lung, non small, adeno carcinoma, pd; test: Clonogenic assay (TCA), LXFA 629; assay type: cell-based; conditions: Homo sapiens, LXFA 629, Adeno carcinoma, read-out: IC50 colony formation
Protocol: as §9

lymphomas = conditions: U.S. Pat. No. 6,469,061; cited from earlier work
cancer cells = conditions: Fingrut et al., 2005; cited from earlier work

For `CC/C=C\CC1C(=O)CCC1CCOC(C)=O` (centres unmarked) [Compound 2], the IC50 ([1]; Homo sapiens, MOLT-4) was 440 ± 109 µM, the IC50 [2] was > 500 µM and the IC50 [3] was > 500 µM. For the same molecule, the IC50 [4] was > 500 µM.

Work on `CCCCCC1C(=O)CCC1CCO[Si](C)(C)C(C)(C)C` (centres unmarked) [Compound 6] yielded an IC50 ([1]; Homo sapiens, MOLT-4) of 56 ± 11 µM, an IC50 [2] of 236 ± 180 µM and an IC50 [3] of 90 ± 14 µM. For the same molecule, the IC50 [4] was 263 ± 212 µM.

Work on `CCC1C(CC2C(=O)CCC2CC(=O)OC)C1(Cl)Cl` (centres unmarked) [Compound 7] yielded an IC50 ([1]; Homo sapiens, MOLT-4) of 125 ± 26 µM, an IC50 [2] of 323 ± 75 µM and an IC50 [3] of 425 ± 21 µM. The IC50 [4] was 393 ± 141 µM.

`CCC(Br)C(Br)CC1C(=O)CCC1CCO` (centres unmarked) [Compound 8] showed an IC50 ([1]; Homo sapiens, MOLT-4) of 50 ± 28 µM, an IC50 [2] of 120 ± 60 µM and an IC50 [3] of 60 ± 14 µM. For the same molecule, the IC50 [4] was 163 ± 42 µM.

Molecule `CCCCCC1C(=O)CCC1CC(=O)Oc1cccc2cccnc12` (centres unmarked) [Compound 9A] has an IC50 [5] of 0.116 µM, an IC50 [6] of 0.036 µM and an IC50 [1] of 10 µM.

For `CC/C=C\CC1C(=O)CCC1CC(=O)Oc1cccc2cccnc12` (centres unmarked) [Compound 9], the IC50 [7] was 1.7 µM, the IC50 ([5]; 72 h) was 0.049 µM and the IC50 [8] was 1.69 µM. The IC50 [9] was 1.32 µM, the IC50 ([6]; Homo sapiens, A-431, 72 h) was 0.089 µM and the “Drop in cellular ATP levels (FIG. 2)” value ([10]; 3 hours exposure, 0.2 or 0.5 mM compound) was “induced a significant drop in cellular ATP levels”. The “Effect of high glucose on the ATP drop (FIG. 2)” value ([10]; 3 hours, high (28 mM) versus low (2 mM) glucose) was “this effect was decreased in the presence of high glucose levels”, the IC50 [11] was 1.93 µM and the IC50 [12] was 1.55 µM. The “Suppression of lung metastasis (lung weight, FIG. 3)” value (B16F10 melanoma cells) was “very effective in suppressing lung metastasis”, the IC50 [13] was 1.12 µM and the IC50 [14] was 5.44 µM. For the same molecule, the IC50 [15] was 1.5 µM, the IC50 ([1]; Homo sapiens, MOLT-4) was 12 ± 9 µM and the “Cytotoxic effect on leukemic cells (FIG. 1)” value [1] was “kill leukemic cells”. For the same molecule, the IC50 [16] was 1.55 µM, the IC50 [2] was 60 ± 14 µM and the IC50 [3] was 200 ± 85 µM. The “Cytotoxic effect on normal lymphocytes (FIG. 1)” value [3] was “without exerting a substantial effect on normal lymphocytes”, the IC50 [4] was 29 ± 21 µM and the IC50 [17] was 1.94 µM. The IC50 [18] was < 1 µM, the IC50 [19] was 6.32 µM and the IC50 [20] was 1.38 µM.

For `CC/C=C\CC1C(=O)CCC1CC(=O)NC(CC(C)C)C(=O)OC` (centres unmarked) [Compound 10], the IC50 ([1]; Homo sapiens, MOLT-4) was 243 ± 39 µM, the IC50 [3] was > 500 µM and the IC50 [4] was > 500 µM.

With `CC/C=C\CC1C(=O)CCC1CC(=O)OC1OC(CO)C(O)C(O)C1O` (centres unmarked) [Compound 11] the IC50 ([1]; Homo sapiens, MOLT-4) was 79 ± 6 µM, the “Cytotoxic effect on leukemic cells (FIG. 1)” value [1] was “kill leukemic cells” and the IC50 [2] was 110 ± 20 µM. For the same molecule, the IC50 [3] was 323 ± 211 µM, the “Cytotoxic effect on normal lymphocytes (FIG. 1)” value [3] was “without exerting a substantial effect on normal lymphocytes” and the IC50 [4] was 237 ± 29 µM.

In the case of `CC/C=C\CC1C(=O)CCC1CC(=O)OC` (centres unmarked) [Methyl jasmonate, methyl jasmonate, reference compound], the IC50 ([5]; 72 h) is listed as 16 µM, the IC50 ([6]; Homo sapiens, A-431, 72 h) is listed as 14 µM and the “Prevention of development of lymphomas in mice” value (lymphomas) is listed as “effective in preventing development of lymphomas in mice”. For the same molecule, the “Decrease in ATP levels in cancer cells” value (cancer cells) was “can cause a decrease in ATP levels in cancer cells”.
